pKi: −log10 of the molar value.
Target: T1, Fatty acid synthase [2202-2509] (Homo sapiens, UniProt P49327)
T1 construct: 2202-2509
Test: Fluorogenic Assay for Detection of FASTE Inhibition
Details: pH 7.5; 37 °C
Method: The reaction mixture consisted of FAS thioesterase domain (FASTE) in buffer, which was preincubated with test compounds for 30 min. The reaction was initiated by addition of substrate 4-MUH. […] The inhibition constants (Ki) were calculated using the equation of Cheng and Prusoff.

T1 sequence (P49327 2202-2509): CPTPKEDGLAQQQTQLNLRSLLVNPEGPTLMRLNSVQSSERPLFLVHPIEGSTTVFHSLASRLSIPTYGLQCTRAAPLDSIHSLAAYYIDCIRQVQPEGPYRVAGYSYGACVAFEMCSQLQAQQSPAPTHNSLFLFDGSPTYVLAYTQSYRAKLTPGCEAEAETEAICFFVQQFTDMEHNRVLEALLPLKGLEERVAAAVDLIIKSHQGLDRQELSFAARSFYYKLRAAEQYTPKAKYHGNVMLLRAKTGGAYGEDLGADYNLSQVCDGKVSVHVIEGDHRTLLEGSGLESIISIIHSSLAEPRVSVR

| SMILES | pKi |
| --- | --- |
| Cc1cc(C)cc(N2C(=O)NC(=O)C(=Cc3ccc(-c4ccccc4)o3)C2=O)c1 [(5E)-1-(3,5-dimethylphenyl)-5-[(5-phenylfuran-2-yl)methylidene]-1,3-diazinane-2,4,6-trione] | 6.42 |
| O=C1NC(=O)N(c2cccc(Br)c2)C(=O)C1=Cc1ccc(-c2ccccc2[N+](=O)[O-])o1 [(5E)-1-(3-bromophenyl)-5-{[5-(2-nitrophenyl)furan-2-yl]methylidene}-1,3-diazinane-2,4,6-trione] | 6.06 |
| O=C1NC(=O)N(Cc2ccccc2)C(=O)/C1=C/c1ccc(-c2ccccc2Cl)o1 [(5E)-1-benzyl-5-{[5-(2-chlorophenyl)furan-2-yl]methylidene}-1,3-diazinane-2,4,6-trione] | 6.07 |
| Cc1ccccc1N1C(=O)NC(=O)C(=Cc2ccc(-c3ccc(F)cc3)o2)C1=O [(5E)-5-{[5-(4-fluorophenyl)furan-2-yl]methylidene}-1-(2-methylphenyl)-1,3-diazinane-2,4,6-trione] | 6.04 |

Reference: BindingDB's records for doi:10.1158/1535-7163.MCT-07-0187 (Burnham Institute For Medical Research, 2007)
